According to BindingDB's records for doi:10.1021/jm300025r (Astrazeneca, 2012):
Blank lines part the entries; values can stand above or below the compound they belong to.

Columns and labels:
[1] = Inhibition of CHK1 in human HT29 cells assessed as abrogation of camptothecin induced check point
[2] = Inhibition of CHK1 in human HT29 cells assessed as check point abrogation

SMILES: N#Cc1cccc(-c2cc(NC(N)=O)c(C(=O)N[C@H]3CCCNC3)s2)c1
EC50 [1]: 40 nM
EC50 [2]: 1900 nM

SMILES: N#Cc1cccc(-c2cc(C(=O)N[C@H]3CCCNC3)c(NC(N)=O)s2)c1
EC50 [1]: 940 nM
EC50 [2]: > 13000 nM

SMILES: NC(=O)Nc1cc(-c2ccc(Cl)c(Cl)c2)sc1C(=O)N[C@H]1CCCNC1
EC50 [1]: 200 nM
EC50 [2]: 5800 nM

SMILES: NC(=O)Nc1sc(-c2ccc(Cl)c(Cl)c2)cc1C(=O)N[C@H]1CCCNC1
EC50 [1]: 150 nM
EC50 [2]: 5700 nM

SMILES: NC(=O)Nc1sc(-c2ccc(F)cc2F)cc1C(=O)N[C@H]1CCCNC1
EC50 [1]: 190 nM
EC50 [2]: 1400 nM

SMILES: NC(=O)Nc1cc(-c2cccc(F)c2F)sc1C(=O)N[C@H]1CCCNC1
EC50 [1]: 60 nM
EC50 [2]: 1500 nM

SMILES: NC(=O)Nc1cc(-c2cc(F)cc(F)c2)sc1C(=O)N[C@H]1CCCNC1
EC50 [1]: 60 nM
EC50 [2]: 2500 nM

SMILES: NC(=O)Nc1sc(-c2cccc(F)c2F)cc1C(=O)N[C@H]1CCCNC1
EC50 [1]: 100 nM
EC50 [2]: 1800 nM

SMILES: NC(=O)Nc1sc(-c2ccccc2F)cc1C(=O)N[C@H]1CCCNC1 [1-(3-((S)-piperidin-3-ylcarbamoyl)-5-(2-fluorophenyl)thiophen-2-yl)urea]
EC50 [1]: 80 nM
EC50 [2]: 1060 nM

SMILES: NC(=O)Nc1sc(-c2cccc(Cl)c2)cc1C(=O)N[C@H]1CCCNC1 [1-(3-((S)-piperidin-3-ylcarbamoyl)-5-(3-chlorophenyl)thiophen-2-yl)urea]
EC50 [1]: 40 nM
EC50 [2]: 1200 nM

Compounds with a lower EC50 [1], results first:

EC50 [1]: 30 nM
EC50 [2]: 600 nM
SMILES: N#Cc1ccc(-c2cc(NC(N)=O)c(C(=O)N[C@H]3CCCNC3)s2)cc1

EC50 [1]: 20 nM
EC50 [2]: 1100 nM
SMILES: NC(=O)Nc1cc(-c2ccc(F)cc2F)sc1C(=O)N[C@H]1CCCNC1

EC50 [1]: 30 nM
EC50 [2]: 1500 nM
SMILES: NC(=O)Nc1sc(-c2cc(F)cc(F)c2)cc1C(=O)N[C@H]1CCCNC1

EC50 [1]: 10 nM
EC50 [2]: 700 nM
SMILES: NC(=O)Nc1cc(-c2cccc(Cl)c2)sc1C(=O)N[C@H]1CCCNC1

EC50 [1]: 20 nM
EC50 [2]: 13000 nM
SMILES: NC(=O)Nc1cc(-c2ccc(F)cc2)sc1C(=O)N[C@H]1CCCNC1

EC50 [1]: 20 nM
EC50 [2]: 2200 nM
SMILES: NC(=O)Nc1cc(-c2ccccc2F)sc1C(=O)N[C@H]1CCCNC1

EC50 [1]: 20 nM
EC50 [2]: 590 nM
SMILES: NC(=O)Nc1cc(-c2ccccc2)sc1C(=O)N[C@H]1CCCNC1

EC50 [1]: 20 nM
EC50 [2]: 840 nM
SMILES: NC(=O)Nc1sc(-c2cccc(F)c2)cc1C(=O)N[C@H]1CCCNC1 [1-(3-((S)-piperidin-3-ylcarbamoyl)-5-(3-fluorophenyl)thiophen-2-yl)urea]

EC50 [1]: 8 nM
EC50 [2]: 1700 nM
SMILES: N#Cc1ccc(-c2cc(C(=O)N[C@H]3CCCNC3)c(NC(N)=O)s2)cc1 [(S)-1-(5-(4-cyanophenyl)-3-(piperidin-3-ylcarbamoyl)thiophen-2-yl)urea]

EC50 [1]: 30 nM
EC50 [2]: 600 nM
SMILES: NC(=O)Nc1sc(-c2ccc(F)cc2)cc1C(=O)N[C@H]1CCCNC1 [(S)-1-(5-(4-fluorophenyl)-3-(piperidin-3-ylcarbamoyl)thiophen-2-yl)urea]
